Values of other authors as cited in patent US20020032245A1, “Resinate composition” (priority 2000, published 2002).

solubility of indomethacin in water: 14 ppm
Structure (SMILES): COc1ccc2c(c1)c(CC(=O)O)c(C)n2C(=O)c1ccc(Cl)cc1 [indomethacin]
